Test systems include SK-MEL-5 melanoma; MDA-MB-231 breast; HOP-92 NSCLC; CCRF-CEM leukemia; RPMI-8226 leukemia; SNB-75 CNS; HT29 colon; COLO 205 colon; UO-31 renal; CAKI-1 renal.
What all share (assay): NCI tumour cell line growth inhibition, 48 h

Values joined by “and” are separate entries in the source; they are usually repeats but may differ in a detail not shown here. Equal values may be shown once.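 In this assay, cells in 96-well plates receive the compound at five concentrations for 48 hours. Endpoints are linearly interpolated between the surrounding concentrations. Abbreviation: GI50, concentration required for 50% inhibition of growth. TGI denotes the concentration required for complete inhibition of growth.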

For the compound `O=C1c2cccc(NCCCNCCO)c2C(=O)c2cccc(NCCCNCCO)c21`, the TGI in the assay with SK-MEL-5 melanoma is 3.31 µM and 4.4 µM; with MDA-MB-231 breast it was 3.37 µM; in the assay with HOP-92 NSCLC, 4.08 µM; in the assay on CCRF-CEM leukemia, 7.09 µM and 6.97 µM; with RPMI-8226 leukemia it was 5.58 µM and 6.85 µM; with SNB-75 CNS, 2.58 µM and 6.58 µM. Besides, the TGI is 4.43 µM and 5.38 µM in the assay on HT29 colon; 2.67 µM and 3.78 µM with COLO 205 colon; 22.2 µM and 21.4 µM in the assay on UO-31 renal. Moreover, the GI50 in the assay with SNB-75 CNS was 0.912 µM and 2.44 µM.

Turning to `O=C(OC(CNc1cc(=O)n(Cc2ccccc2)c(=O)n1Cc1ccccc1)CN1CCCC1)c1ccccc1` (centres undefined), the GI50 with SK-MEL-5 melanoma was over 100 µM; with MDA-MB-231 breast, 75.3 µM; with CCRF-CEM leukemia, 23.7 µM; in the assay with RPMI-8226 leukemia it was 29.3 µM; in the assay with SNB-75 CNS it was 16.5 µM; with CAKI-1 renal it was over 100 µM. The GI50 is 35 µM with HT29 colon, over 100 µM in the assay with COLO 205 colon and over 100 µM with UO-31 renal. Also, the TGI in the assay on SK-MEL-5 melanoma, in the assay with MDA-MB-231 breast, in the assay with CCRF-CEM leukemia, in the assay with RPMI-8226 leukemia, in the assay with SNB-75 CNS and in the assay with CAKI-1 renal was over 100 µM in each case. Further, the TGI in the assay with HT29 colon, in the assay on COLO 205 colon and in the assay with UO-31 renal was over 100 µM each time.

On to `CN1CCN(CCOc2ccc(-c3cnc4c(-c5ccccc5F)cnn4c3)cc2)CC1`, for which the GI50 in the assay on SK-MEL-5 melanoma was 1.63 µM; with MDA-MB-231 breast, 1.54 µM; with HOP-92 NSCLC, 1.31 µM; in the assay with CCRF-CEM leukemia, 1.85 µM; in the assay with RPMI-8226 leukemia it was 1.57 µM; with SNB-75 CNS, 1.35 µM. Moreover, the values for the GI50 with CAKI-1 renal and in the assay with UO-31 renal were 1.56 µM and 1.33 µM, respectively. For the same compound, the TGI with SK-MEL-5 melanoma came to 3 µM; in the assay with MDA-MB-231 breast, 3.08 µM; in the assay with HOP-92 NSCLC it was 3.15 µM; in the assay on CCRF-CEM leukemia, 4.77 µM; with RPMI-8226 leukemia, 5.44 µM; in the assay with SNB-75 CNS, 2.66 µM. Moreover, the TGI in the assay on CAKI-1 renal came to 2.9 µM; in the assay with UO-31 renal it was 2.69 µM.

On to `Cc1ccc(NC(=O)C(=O)C(C(=O)c2ccc3ccccc3c2)C2OC(=O)c3ccccc32)cc1C` (centres undefined), for which the TGI with SK-MEL-5 melanoma worked out at 30 µM; with HOP-92 NSCLC, 40.6 µM; with CCRF-CEM leukemia, 51.3 µM; in the assay with RPMI-8226 leukemia it was 37.5 µM; in the assay with SNB-75 CNS, 7.34 µM; in the assay with CAKI-1 renal, 43.7 µM. The values for the TGI in the assay on HT29 colon, with COLO 205 colon and with UO-31 renal were over 100 µM, 32.6 µM and 27.6 µM, respectively.

As for `O=C(Nc1nc2ccc(C(F)(F)F)cc2s1)c1cc(Cl)ccc1O`, the GI50 is 0.234 µM in the assay on SK-MEL-5 melanoma; 0.704 µM in the assay on MDA-MB-231 breast; 0.116 µM in the assay with HOP-92 NSCLC; 0.378 µM in the assay on CCRF-CEM leukemia; 0.276 µM in the assay with RPMI-8226 leukemia; 1.59 µM with SNB-75 CNS. In addition, the GI50 is 2.1 µM in the assay with HT29 colon, 1.38 µM in the assay on COLO 205 colon and 1.19 µM in the assay on UO-31 renal. The TGI in the assay with SK-MEL-5 melanoma came to 0.684 µM; with MDA-MB-231 breast, 3.75 µM; in the assay on HOP-92 NSCLC, 0.489 µM; in the assay with CCRF-CEM leukemia it was 96.5 µM; in the assay with RPMI-8226 leukemia, 2 µM; in the assay on SNB-75 CNS it was 7.24 µM. The TGI in the assay with HT29 colon stood at 74.7 µM; in the assay with COLO 205 colon, 4 µM; with UO-31 renal it was 8.79 µM.

As for `N#CC(N)(C(=O)CCC(=O)Nc1cccc(Cl)c1)c1ccc(Cl)cc1` (centres undefined), the TGI with SK-MEL-5 melanoma, in the assay with HOP-92 NSCLC, with CCRF-CEM leukemia, in the assay with RPMI-8226 leukemia, with SNB-75 CNS and in the assay with CAKI-1 renal was over 100 µM in each case. In addition, the TGI in the assay on HT29 colon, in the assay with COLO 205 colon and with UO-31 renal was over 100 µM in each case.

Regarding `COc1cc2nc(-c3ccc(Cl)cc3)cc(OCCCN3CCCCC3)c2cc1OC`, the GI50 with SK-MEL-5 melanoma is 1.1 µM; in the assay with MDA-MB-231 breast, 0.666 µM; in the assay on HOP-92 NSCLC, 1.02 µM; with CCRF-CEM leukemia, 2.79 µM; in the assay on SNB-75 CNS, 1.98 µM; in the assay on CAKI-1 renal, 0.287 µM. In addition, the GI50 in the assay with COLO 205 colon is 0.582 µM. Besides, the TGI is 2.32 µM in the assay on SK-MEL-5 melanoma; 4 µM with MDA-MB-231 breast; 6.24 µM in the assay with HOP-92 NSCLC; over 100 µM in the assay with CCRF-CEM leukemia; 6.19 µM in the assay with SNB-75 CNS; 2.54 µM with CAKI-1 renal. Moreover, in the assay on COLO 205 colon, the TGI was over 100 µM.

Take `O=C(O)CCC(=O)c1ccc[nH]1`: the TGI in the assay with SK-MEL-5 melanoma, with MDA-MB-231 breast, in the assay with HOP-92 NSCLC, in the assay on RPMI-8226 leukemia, in the assay on SNB-75 CNS and with CAKI-1 renal was over 100 µM each time. Moreover, the TGI with HT29 colon, in the assay on COLO 205 colon and with UO-31 renal was over 100 µM in each case.

With `O=C(/C=C/c1ccccc1O)c1ccccc1O`, the TGI in the assay on SK-MEL-5 melanoma, with HOP-92 NSCLC, with CCRF-CEM leukemia, with RPMI-8226 leukemia, with SNB-75 CNS and in the assay on CAKI-1 renal was over 100 µM throughout. The TGI in the assay with HT29 colon, in the assay with COLO 205 colon and in the assay on UO-31 renal was over 100 µM in each case.

Take `NC(=O)NC1C(c2ccccc2)=C1c1ccccc1`: the TGI is 23.6 µM in the assay on SK-MEL-5 melanoma; 38.2 µM in the assay on MDA-MB-231 breast; 38.1 µM with HOP-92 NSCLC; over 100 µM in the assay on CCRF-CEM leukemia; 45.4 µM with RPMI-8226 leukemia; over 100 µM with CAKI-1 renal. For the same compound, the values for the TGI with HT29 colon, with COLO 205 colon and with UO-31 renal were 46.1 µM, 27.9 µM and 28.8 µM, respectively.

In the case of `O=c1[nH]c(=O)n(C2OC(CO)C(O)C2O)cc1NN=NCc1ccccc1` (centres undefined), the TGI in the assay with SK-MEL-5 melanoma is over 100 µM; with HOP-92 NSCLC it was over 100 µM; in the assay on CCRF-CEM leukemia it was over 100 µM; in the assay with RPMI-8226 leukemia, over 76.2 µM; in the assay on SNB-75 CNS, over 100 µM; in the assay on CAKI-1 renal, over 100 µM. The TGI with HT29 colon, in the assay on COLO 205 colon and in the assay on UO-31 renal was over 100 µM each time.

As for `Cc1ccc(Cc2c(=O)[nH]nc3ccccc23)cc1`, the TGI with SK-MEL-5 melanoma, with HOP-92 NSCLC, in the assay with CCRF-CEM leukemia, with RPMI-8226 leukemia, in the assay with SNB-75 CNS and in the assay with CAKI-1 renal was over 100 µM throughout. Further, the TGI in the assay with HT29 colon, in the assay with COLO 205 colon and with UO-31 renal was over 100 µM in each case.

The values above are taken from PubChem BioAssay (NCI).
